From patent publication US7998940B2, “Aptamers to von Willebrand factor and their use as thrombotic disease therapeutics” (Archemix Corp., priority 2004, dated 2011)
“Also recorded” adds a separate entry of the source. [invdT] = inverted (3'-3') thymidine; d = 2'-deoxy (DNA); m = 2'-O-methyl

How the values were obtained:
[1] = test system: intra-arterial thrombosis of carotid arteries; experiment: cynomolgus macaque electrolytic thrombosis model; format: in vivo, cynomolgus monkeys
Procedure: A study was performed to test the efficacy of ARC1779 (SEQ ID NO 320) in inhibiting intra-arterial thrombosis in a well documented non-human primate electrolytic thrombosis model. See, e.g., Rote et al., Stroke, 1994: 25, 1223-1233.
Each animal was anesthetized prior to surgical preparation, intubated and maintained in anesthesia with isoflurane inhalant anesthetic to effect delivered through a volume-regulated respirator. An intravenous catheter was also placed in a peripheral vein for administration of lactated Ringer's solution during the procedure.
A catheter was placed in the femoral artery of each animal for continuous monitoring of arterial blood pressure. Similarly a catheter was placed in the femoral vein for blood sample collection. Each carotid artery was instrumented with a Doppler flow probe connected to a flow meter. The flow probes were placed around the artery at a point proximal to the insertion of the intra-arterial electrode and stenosis. The stenosis was placed around each carotid artery so that the […] was reduced by approximately 50% to 60% without altering the mean […]. Blood flow in the carotid arteries was monitored and recorded continuously throughout the observation periods.
Electrolytic injury to the intimal surface of each carotid artery was accomplished via placement of an intravascular electrode. Each electrode was connected to the positive pole of a constant current device and cathode connected to a distant subcutaneous site. Continuous current was delivered to each vessel for a period of 3 hours or for 30 minutes after complete occlusion, whichever was shorter.
Once the electrodes were placed on the right carotid artery (“RCA”) the animal was administered the test article as indicated in Table 32 above. Approximately 15 minutes after test article administration, the electrical current was applied at 100 μA. Blood samples and CBT measurements were collected at the time points specified in Blood Sample Collection Schedule as indicated in FIG. 31. The current was terminated ˜30 minutes after the blood flow signal remained stable at zero flow (which indicates an occlusive thrombus had been formed at the site) or after 180 minutes of electrical stimulation. Approximately 195 minutes after the test article was administered, the left carotid artery (“LCA”) had electrical current administered in a similar fashion as previously described for the RCA. After termination of all surgical procedures and sample collection each animal was euthanized.
An additional 10 cynomolgus monkeys (2.5 to 3.5 kg) were divided into treatment groups 5 to 7 and were treated according the regimen indicated in Table 33 below.
The animal procedure for each treatment group in Table 33 was conducted as reported for the animals in Example 5B.

platelet function = experiment: ex vivo PFA-100 platelet function after 0.5 mg/kg IV bolus in cynomolgus macaques; settings: 0.5 mg/kg single IV bolus
Procedure: (§1) Following IV administration, blood was collected percutaneously at various time points post-dose for PK and PD analysis. PD effect of ARC1779 on platelet function was determined by PFA-100 assays and effect of ARC1779 on bleeding was measured by CBT time. In addition, plasma samples were analyzed by HPLC for quantitation of ARC1779 levels. PK parameter estimates were determined by 2-compartment analysis.
(§2) C. macaques were dosed at 0.5 mg/kg IV bolus with ARC1779 (SEQ ID NO 320). PFA-100 closure time, BIPA and cutaneous bleeding time (“CBT”) were all measured as a function of time throughout the studies. BIPA and PFA-100 closure times were measured as described in previously in Example 3. Cutaneous bleeding times were measured using standard protocols described as follows.

[2] = cutaneous bleeding time (CBT) in cynomolgus macaques; format: in vivo; settings: in words
Procedure: as §1, §2
A blood pressure cuff was applied to the biceps region of the forearm to be tested and inflated to maintain a constant pressure of 40 mmHg. Using a Surgicutt® Automated Incision Device (ITC, Edison, N.J.), a longitudinal incision was made over the lateral aspect of the volar surface of the forearm distal to the antecubital crease. A stopwatch was started at the time of incision. […] Bleeding time is determined to within 30 seconds of the time when blood is no longer wicked onto the paper. […]

[3] = pharmacokinetics of ARC1779 after 0.5 mg/kg IV bolus in cynomolgus macaques (HPLC); format: in vivo; settings: 0.5 mg/kg single IV bolus, 2-compartment analysis
Procedure: -PK/PD correlation of ARC1779 was evaluated in three cynomolgus macaques after a single intravenous (IV) bolus dose at 0.5 mg/kg. ARC1779 levels in the plasma were correlated to PD effects of ARC1779 in inhibition of platelet function or prolongation of cutaneous bleeding time (CBT).
as §1

[4] = test system: ADP induced platelet aggregation; experiment: ADP Induced Platelet Aggregation (AIPA) in human PRP; format: cell-based; settings: in words, 10 micromolar ADP
Procedure: Another assay of this Example used ADP to induce platelet aggregation.
AIPA was performed with human PRP exactly as was done for BIPA described above in Example 3C with the exception that instead of adding botrocetin, 10 micromolar ADP (Chronolog, Haverton, Pa.) was added to induce platelet aggregation.

vWF = vWF (Homo sapiens, UniProt P04275, D1472H/Q852R/T1381A); experiment: cellular / biological vWF dependent assays of Example 3, not specified further; format: cell-based; settings: in words; FACS, BIPA (and PFA-100) assays of Example 3
Source text: The effectiveness of various aptamers in blocking vWF function in several biological assays is described in this Example.
In one assay botrocetin is used. Botrocetin, a protein isolated from snake venom, is known to induce von Willebrand Factor binding to the gpib receptor on live and fixed platelets. This reaction causes agglutination of suspensions of fixed platelets via vWF multimerization. In preparations of platelet rich plasma (hereinafter “PRP”), vWF/botrocetin induction of agglutination is followed by a second phase of platelet aggregation caused by metabolic activation of the platelets. These two reactions: vWF binding to fixed platelets and vWF mediated platelet aggregation, can be used to measure the activity of aptamers of the invention.

[5] = test system: rabbit vWF A1 domain (SEQ ID NO 6); experiment: dot blot KD determination, rabbit vWF A1 domain; format: binding; settings: dot blot, 12 point protein titration, 1xDPBS plus 0.1 mg/mL BSA, room temperature, 30 minutes
Chain of rabbit vWF A1 domain (SEQ ID NO 6) (as listed by the source): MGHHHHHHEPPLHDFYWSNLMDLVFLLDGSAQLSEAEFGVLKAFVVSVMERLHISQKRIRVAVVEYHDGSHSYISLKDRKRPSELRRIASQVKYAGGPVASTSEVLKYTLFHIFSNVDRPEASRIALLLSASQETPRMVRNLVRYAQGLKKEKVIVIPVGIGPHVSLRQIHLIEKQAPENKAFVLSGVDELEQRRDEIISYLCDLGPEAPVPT
Procedure: A 12 point protein titration was used in the dot blot assay (300 nM, 100 nM, 30 nM, 10 nM, 3 nM, 1 nM, 300 pM, 100 pM, 30 pM, 10 pM, 3 pM, 0 pM) in 1×DPBS plus 0.1 mg/mL BSA at room temperature for 30 minutes.

Chain of vWF (P04275 764-2813 Q852R/T1381A/D1472H): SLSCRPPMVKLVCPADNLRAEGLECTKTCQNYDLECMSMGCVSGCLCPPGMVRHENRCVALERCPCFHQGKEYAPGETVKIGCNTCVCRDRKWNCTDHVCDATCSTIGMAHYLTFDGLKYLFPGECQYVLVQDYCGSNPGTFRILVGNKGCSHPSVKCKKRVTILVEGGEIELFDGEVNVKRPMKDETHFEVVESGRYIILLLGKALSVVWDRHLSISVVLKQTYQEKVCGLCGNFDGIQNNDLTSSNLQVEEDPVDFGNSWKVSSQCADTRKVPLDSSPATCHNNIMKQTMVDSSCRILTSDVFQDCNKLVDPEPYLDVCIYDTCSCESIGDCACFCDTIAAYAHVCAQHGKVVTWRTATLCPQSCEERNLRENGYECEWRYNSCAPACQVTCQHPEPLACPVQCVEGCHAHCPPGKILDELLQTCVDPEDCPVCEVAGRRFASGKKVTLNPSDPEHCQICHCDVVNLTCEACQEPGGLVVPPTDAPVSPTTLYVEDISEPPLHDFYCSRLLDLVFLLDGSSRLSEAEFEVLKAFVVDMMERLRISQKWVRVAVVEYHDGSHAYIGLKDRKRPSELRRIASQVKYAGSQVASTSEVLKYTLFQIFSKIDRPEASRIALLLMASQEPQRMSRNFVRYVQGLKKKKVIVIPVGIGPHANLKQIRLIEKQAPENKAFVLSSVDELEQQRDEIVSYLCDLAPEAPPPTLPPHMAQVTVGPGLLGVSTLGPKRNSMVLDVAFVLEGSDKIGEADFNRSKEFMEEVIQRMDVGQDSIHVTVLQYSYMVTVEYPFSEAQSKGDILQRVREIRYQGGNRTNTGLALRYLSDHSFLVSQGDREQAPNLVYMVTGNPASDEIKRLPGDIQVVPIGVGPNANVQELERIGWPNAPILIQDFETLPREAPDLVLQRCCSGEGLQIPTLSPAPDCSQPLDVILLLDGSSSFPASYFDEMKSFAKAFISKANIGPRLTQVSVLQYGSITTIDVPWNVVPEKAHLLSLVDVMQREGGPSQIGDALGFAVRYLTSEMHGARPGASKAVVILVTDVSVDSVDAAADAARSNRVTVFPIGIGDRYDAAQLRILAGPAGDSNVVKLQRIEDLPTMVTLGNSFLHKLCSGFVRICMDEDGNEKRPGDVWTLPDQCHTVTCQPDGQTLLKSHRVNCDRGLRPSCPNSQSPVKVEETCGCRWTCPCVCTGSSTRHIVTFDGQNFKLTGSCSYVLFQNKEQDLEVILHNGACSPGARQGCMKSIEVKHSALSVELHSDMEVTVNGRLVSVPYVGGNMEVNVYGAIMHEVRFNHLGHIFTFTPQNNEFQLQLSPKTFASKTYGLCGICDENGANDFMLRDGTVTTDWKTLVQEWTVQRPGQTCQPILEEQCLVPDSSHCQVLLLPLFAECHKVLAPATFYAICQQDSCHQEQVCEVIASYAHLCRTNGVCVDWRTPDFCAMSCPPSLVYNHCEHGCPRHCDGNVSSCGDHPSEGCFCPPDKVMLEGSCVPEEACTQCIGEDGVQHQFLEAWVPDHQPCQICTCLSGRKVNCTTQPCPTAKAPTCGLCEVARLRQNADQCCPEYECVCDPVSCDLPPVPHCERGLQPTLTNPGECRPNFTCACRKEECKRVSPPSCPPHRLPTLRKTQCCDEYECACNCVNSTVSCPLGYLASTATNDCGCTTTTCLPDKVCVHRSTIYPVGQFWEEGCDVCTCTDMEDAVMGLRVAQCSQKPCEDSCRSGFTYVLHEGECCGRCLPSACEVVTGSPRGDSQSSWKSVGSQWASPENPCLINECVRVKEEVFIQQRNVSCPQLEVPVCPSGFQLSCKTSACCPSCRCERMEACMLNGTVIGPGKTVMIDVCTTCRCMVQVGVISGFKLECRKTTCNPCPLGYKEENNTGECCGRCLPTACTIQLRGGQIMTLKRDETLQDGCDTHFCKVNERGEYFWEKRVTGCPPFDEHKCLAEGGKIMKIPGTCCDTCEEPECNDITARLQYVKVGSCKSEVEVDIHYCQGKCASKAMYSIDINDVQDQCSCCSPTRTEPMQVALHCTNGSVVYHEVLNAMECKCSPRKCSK

PEG20K-NH2-mGmCmGmUdGdCdAmGmUmGmCmCmUmUmCmGmGmCdCmG-s-TmGdCdGdGTmGmCdCmUdCdCmGmUdCmAmCmGmC-3T [ARC1779]
thrombus formation ([1]; in words, sequential 180-minute electrical injuries to the carotid arteries): inhibited thrombus formation
carotid arteries that developed occlusive thrombi ([1]; infusion targeted to constant plasma level of 300 nM): 100%
carotid arteries that developed occlusive thrombi ([1]; infusion targeted to constant plasma level of 500 nM): 63%
carotid arteries that developed occlusive thrombi ([1]; infusion targeted to constant plasma level of 750 nM): 25%
carotid arteries that developed occlusive thrombi ([1]; infusion targeted to constant plasma level of 1000 nM): 0%
plasma concentration at which platelet function returned to normal (PFA-100) (platelet function): approximately 77 nM
effect on cutaneous bleeding time ([2]; 0.5 mg/kg single IV bolus, 0.5 mg/kg): minimal effect; also recorded: very little increase
cutaneous bleeding time in the electrolytic thrombosis model ([2]; FIG. 34, various doses and time points): at some doses and/or time points in this animal model prolonged CBT was observed, while at other doses and time points CBT was not prolonged
distribution half-life (t1/2α) [3]: approximately 1.0 hour

mGmCmGmUdGdCdAmGmUmGmCmCmUmUmCmGmGmCdCmG-s-TmGdCdGdGTmGmCdCmUdCdCmGmUdCmAmCmGmC-3T (GCGUGCAGUGCCUUCGGCCGTGCGGTGCCUCCGUCACGC; sugars from the 5' end mmmmdddmmmmmmmmmmmdmdmddddmmdmddmmdmmmm, [invdT] at 3' end, backbone not given here) [ARC1368]
ability to block AIPA [4]: no ability to block AIPA

B1: AMX237.G6: DNA SELEX 2 aptamer clone (nucleic acid)
DNA: CTACCTACGATCTGACTAGCGTGCAGTGCCTATTCCAGGCCGTGCGGTGCCTCCGTCACGCTTACTCTCATGTAGTTCC
modifications: DNA, backbone and methylation of C not given here
notes: DNA SELEX 2 aptamer clone
activity in the cellular / biological assays (vWF): slightly more potent
Kd [5]: 47 nM
